Each block holds one molecule with its values, some of them ahead of it.
What was measured:
[1] = tested on: bovine embryos; assay: in vitro culture test of low-quality bovine embryos after 7 days of non-freezing preservation (survival, hatching); assay type: cell-based, Japanese Black Cattle and Holstein Cattle; details: for Hatched embryos (%) / Survival rate (%) / Hatched embryos: number / Survival rate: number of surviving embryos: medium 199, low temperature 7 days; for Hatched embryos: number / Survival rate: number of surviving embryos: out of N; for Number of hatched embryos (%) / Number of live embryos (%) / Number of hatched embryos / Number of live embryos: medium 199, 7 days non-frozen
Procedure: (§1) Embryos collected from donor bovine animals of Japanese Black Cattle and Holstein Cattle after superovulation were evaluated for their qualities according to the regulation by International Embryo Transfer Society (IETS manual. Manual of the international embryo transfer society. In: Stringfellow D A, Seidel S M, editors. Savoy, Ill., USA: IETS 1998). Low-quality embryos were subjected to an in vitro culture test after 7 days of non-freezing preservation, and high-quality embryos were subjected to investigation of the conception rate after implantation to recipient cattle.
(§2) Preservation of bovine embryos was carried out as follows (FIG. 1). First, a preservative solution alone was sucked into a straw having a capacity of 0.25 ml, and, after introduction of an air layer, a bovine embryo contained in the preservative solution was sucked. Thereafter, an air layer was introduced, and the preservative solution alone was sucked again. The straw was then sealed. Subsequently, the straw containing the sucked bovine embryo was immersed in water contained in a plastic container (plastic tube) which had been preliminarily cooled to 4 to 5° C. The plastic container was then stored in a refrigerator for 7 days at 4 to 5° C.
(§3) After the non-freezing preservation, the bovine embryo was washed 3 times by immersion in PBS(+) containing 5% (v/v) fetal bovine serum (FBS). The washed bovine embryo was cultured under 5% CO2 at 38° C. in CR1aa medium containing 5% (v/v) FBS for 48 hours. Morphological observation was carried out under a stereoscopic microscope, and the embryo was judged to be alive if the progress of cleavage by the culture could be found and the cytoplasmic membrane was not disrupted. Live cells were checked for whether hatching from the zona pellucida could be observed or not. A bovine embryo washed with PBS(+) containing 5% (v/v) FBS was nonsurgically implanted into the deep part of the corpus-luteum-side uterine horn of each recipient cattle on Day 6 to 8 of an estrous cycle (the date of estrus was defined as Day 0). On Days 30 and 60 of the estrous cycle, pregnancy diagnosis was carried out. For a significance test to verify the effect of the embryo preservation solution according to the present invention, a χ^2 test was used.
(§4) To medium 199 (Invitrogen) supplemented with antibiotics (penicillin G potassium and streptomycin sulfate), FBS was added to 20 to 50% (v/v), and HEPES was also added to a concentration of 0 to 100 mM. In the conception test, a group in which a special peptide having a protection effect against low temperature (mature Nfel1, SEQ ID NO:2) was added was also provided. In addition, in order to investigate the effects of other Good's buffers other than HEPES, preservation solutions were prepared by adding FBS and a Good's buffer (PIPES or MOPS) to medium 199 such that the concentration of FBS was 50% (v/v) and the concentration of the Good's buffer was 25 mM. These preservation solutions were sterilized by filtration through a filter having a pore size of 0.2 μm, and stored in a refrigerator until use.
Using medium 199 to which a Good's buffer was added at 25 mM (FBS concentration, 50% (v/v) FBS), bovine embryos were preserved at low temperature for 7 days, and the survival rate and the hatching rate were investigated by the method described above. […] In Table 3, “pH” indicates the pH of the medium upon completion of the refrigerated storage for 7 days.

[2] = pH of the preservative solution upon completion of preservation; assay type: physicochemical; details: for pH of the medium upon completion of the refrigerated storage for 7 days: Good's buffer 25 mM, FBS 50% (v/v), medium 199; for pH upon completion of preservation: medium 199, 7 days
Procedure: Preservation of bovine embryos was carried out as follows (FIG. 1). First, a preservative solution alone was sucked into a straw having a capacity of 0.25 ml, and, after introduction of an air layer, a bovine embryo contained in the preservative solution was sucked. Thereafter, an air layer was introduced, and the preservative solution alone was sucked again. The straw was then sealed. Subsequently, the straw containing the sucked bovine embryo was immersed in water contained in a plastic container (plastic tube) which had been preliminarily cooled to 4 to 5° C. The plastic container was then stored in a refrigerator for 7 days at 4 to 5° C. […]

[3] = tested on: bovine embryos; assay: conception test: implantation of high-quality bovine embryos preserved 7 days in the non-frozen state into recipient cattle; assay type: in vivo; details: 25 mM HEPES; for Conceptus number on Day 30 / Conceptus number on Day 60: 16 implanted embryos
Procedure: as §1, §2, §3, §4
Subsequently, the conception ability of high-quality bovine embryos that had been preserved in the non-frozen state for 7 days was investigated. Since the concentration of HEPES generally recommended for use in cell culture is 10 to 25 mM (Luo S et al., Effect of HEPES buffer on the uptake and transport of P-glycoprotein substrates and large neutral amino acids. Mol Pharm 2010; 7:412-420), the concentration of HEPES in the non-freezing preservative solution used in the present test for investigation of the conception ability was set to 25 mM. The special recombinant peptide having a protection effect against low temperature (mature Nfel1 peptide) was added to medium 199 containing 50% (v/v) FBS supplemented with 25 mM HEPES, to see whether the peptide improves the conception ability or not.

[4] = tested on: bovine embryos; details: mature Nfel1 in combination with about 20 to 50% (v/v) serum; cited from earlier work
[5] = Good's buffer 25 mM, FBS 50% (v/v)
[6] = 12.5 mM HEPES, 20% FBS, 35 tested embryos
[7] = 12.5 mM HEPES, 50% FBS, 35 tested embryos
[8] = 25 mM HEPES, 20% FBS, 36 tested embryos
[9] = 25 mM HEPES, 50% FBS, 36 tested embryos
[10] = 50 mM HEPES, 20% FBS, 30 tested embryos
[11] = 50 mM HEPES, 50% FBS, 30 tested embryos
[12] = 100 mM HEPES, 50% FBS, 20 tested embryos
[13] = medium 199, 50% (v/v) FBS, 7 days non-frozen
[14] = 25 mM tris (pH adjusted to 7.2 with hydrochloric acid), medium 199, 50% (v/v) FBS, 7 days

Molecule: O=S(=O)(O)CCCN1CCN(CCO)CC1 [EPPS, 3-[4-(2-Hydroxyethyl)-1-piperazinyl]propanesulfonic acid]
Hatched embryos (%) [1, 5]: 10.0% | Survival rate (%) [1, 5]: 35.0% | Hatched embryos: number [1, 5]: 2 | Survival rate: number of surviving embryos [1, 5]: 7 | pH of the medium upon completion of the refrigerated storage for 7 days [2]: 7.3

Molecule: O=S(=O)(O)CCN1CCN(CCO)CC1 [HEPES, 4-(2-hydroxyethyl)-1-piperazineethanesulfonic acid]
Number of hatched embryos (%) ([1]; 12.5 mM HEPES, 20% FBS): 8.6% | Number of live embryos (%) ([1]; 12.5 mM HEPES, 20% FBS): 25.7% | Number of hatched embryos [1, 6]: 3 | Number of live embryos [1, 6]: 9 | Number of hatched embryos (%) ([1]; 12.5 mM HEPES, 50% FBS): 25.7% | Number of live embryos (%) ([1]; 12.5 mM HEPES, 50% FBS): 54.3% | Number of hatched embryos [1, 7]: 9 | Number of live embryos [1, 7]: 19 | Number of hatched embryos (%) ([1]; 25 mM HEPES, 20% FBS): 25.0% | Number of live embryos (%) ([1]; 25 mM HEPES, 20% FBS): 63.9% | Number of hatched embryos [1, 8]: 9 | Number of live embryos [1, 8]: 23 | Number of hatched embryos (%) ([1]; 25 mM HEPES, 50% FBS): 36.1% | Number of live embryos (%) ([1]; 25 mM HEPES, 50% FBS): 69.4% | Number of hatched embryos [1, 9]: 13 | Number of live embryos [1, 9]: 25 | Number of hatched embryos (%) ([1]; 50 mM HEPES, 20% FBS): 26.7% | Number of live embryos (%) ([1]; 50 mM HEPES, 20% FBS): 63.3% | Number of hatched embryos [1, 10]: 8 | Number of live embryos [1, 10]: 19 | Number of hatched embryos (%) ([1]; 50 mM HEPES, 50% FBS): 33.3% | Number of live embryos (%) ([1]; 50 mM HEPES, 50% FBS): 73.3% | Number of hatched embryos [1, 11]: 10 | Number of live embryos [1, 11]: 22 | Number of hatched embryos (%) ([1]; 100 mM HEPES, 50% FBS): 20.0% | Number of live embryos (%) ([1]; 100 mM HEPES, 50% FBS): 65.0% | Number of hatched embryos [1, 12]: 4 | Number of live embryos [1, 12]: 13 | effect to protect embryos during non-freezing low-temperature preservation, compared among Good's buffers ([1]; Good's buffer 25 mM, FBS 50% (v/v), medium 199, 7 days): highest effect | Hatched embryos (%) [1, 5]: 36.1% | Survival rate (%) [1, 5]: 69.4% | Hatched embryos: number [1, 5]: 13 | Survival rate: number of surviving embryos [1, 5]: 25 | survival rate after preservation for 7 days compared to the HEPES-free group ([1]; HEPES 12.5 to 100 mM, low-quality bovine embryos): higher survival rate | rate of hatching from the zona pellucida ([1]; HEPES 25 to 50 mM, FBS 50% (v/v)): especially high | conception rate ([3]; high-quality bovine embryos, 7 days non-frozen, medium 199, 50% (v/v) FBS): 75.0% | Conceptus number on Day 30 (%) [3, 13]: 75.0% | Conceptus number on Day 60 (%) [3, 13]: 75.0% | birth of calves [3, 13]: birth of normal calves could be observed | death of early embryos between Day 30 and Day 60 of pregnancy [3, 13]: not found | Conceptus number on Day 30 [3, 13]: 12 | Conceptus number on Day 60 [3, 13]: 12 | pH upon completion of preservation ([2]; 12.5 mM HEPES, 20% FBS): 7.4 | pH upon completion of preservation ([2]; 12.5 mM HEPES, 50% FBS): 7.4 | pH upon completion of preservation ([2]; 25 mM HEPES, 20% FBS): 7.3 | pH upon completion of preservation ([2]; 25 mM HEPES, 50% FBS): 7.0 | pH upon completion of preservation ([2]; 50 mM HEPES, 20% FBS): 6.9 | pH upon completion of preservation ([2]; 50 mM HEPES, 50% FBS): 6.8 | pH upon completion of preservation ([2]; 100 mM HEPES, 50% FBS): 6.9 | pH of the medium upon completion of the refrigerated storage for 7 days [2]: 7.0 | pH of the non-freezing preservative solution containing HEPES upon completion of the preservation ([2]; HEPES-containing solutions of Table 1): 6.9 to 7.4

pH of the medium upon completion of the refrigerated storage for 7 days [2]: 7.0
Molecule: O=S(=O)(O)CCCN1CCOCC1 [MOPS, 3-Morpholinopropanesulfonic acid]
Hatched embryos (%) [1, 5]: 25.0% | Survival rate (%) [1, 5]: 45.0% | Hatched embryos: number [1, 5]: 5 | Survival rate: number of surviving embryos [1, 5]: 9

Molecule: O=S(=O)(O)CCN1CCN(CCS(=O)(=O)O)CC1 [PIPES, Piperazine-1,4-bis(2-ethanesulfonic acid)]
Hatched embryos (%) [1, 5]: 25.0% | Survival rate (%) [1, 5]: 40.0% | Hatched embryos: number [1, 5]: 5 | Survival rate: number of surviving embryos [1, 5]: 8 | pH of the medium upon completion of the refrigerated storage for 7 days [2]: 7.0

pH of the medium upon completion of the refrigerated storage for 7 days [2]: 7.2
Molecule: O=S(=O)(O)CCNC(CO)(CO)CO [TES, N-Tris(hydroxymethyl)methyl-2-aminoethanesulfonic acid]
Hatched embryos (%) [1, 5]: 15.0% | Survival rate (%) [1, 5]: 30.0% | Hatched embryos: number [1, 5]: 3 | Survival rate: number of surviving embryos [1, 5]: 6

Molecule: Special recombinant peptide: special peptide having a protection effect against low temperature (mature Nfel1, SEQ ID NO:2), 66 residues, expressed in E. coli
Conceptus number on Day 30 (%) [3, 13]: 75.0% | Conceptus number on Day 60 (%) [3, 13]: 75.0% | Conceptus number on Day 30 [3, 13]: 12 | Conceptus number on Day 60 [3, 13]: 12 | conception-promoting effect ([3]; peptide added to medium 199, 50% (v/v) FBS): No conception-promoting effect was found | period of preservation of bovine embryos at non-freezing low temperature [4]: up to 5 days

pH after the low-temperature preservation ([2]; 25 mM tris, medium 199, 50% (v/v) FBS, 7 days): 7.2
Molecule: tris(hydroxymethyl)aminomethane [reference compound]
hatching rate after the preservation [1, 14]: 5.0% | survival rate after the preservation [1, 14]: 10.0%

From patent US10392599B2, “Method for non-freeze low-temperature preservation of mammalian embryo or fertilized egg” (NATIONAL FEDERATION OF AGRICULTURAL COOPERATIVE ASSOCIATIONS, priority 2012, dated 2019)
